From the supplement of paper PMC11061612

Tests used:
Assay in all cases: combination Emax (second highest fraction inhibited in the dose matrix, 72 h); higher = more inhibition; extreme values may be limits of the assay
[1] = tested on: BxPC-3 (Pancreatic Carcinoma)
Outline: (§1)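 Cell lines in DMEM/F12 or RPMI with 10% FBS were plated in 1536-well plates, held 24 hours at 37°C, 5% CO2, then given two-drug dose matrices for 72 hours (DMSO typically 0.2%). Viability was read by CellTiter-Glo 2.0 luminescence and scaled as inhibition from 0 (vehicle wells) to 1 (blank wells). Combination Emax is the second-highest inhibition in the matrix; Bliss excess is observed combination effect minus expected EA + EB − EA·EB, EA and EB being single-agent effects.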

[2] = tested on: SNU-C2B (Colorectal Carcinoma)
Outline: as §1

[3] = tested on: RCC-JW (Kidney Carcinoma)
Outline: as §1

NCI-H2373 (Mesothelioma) = tested on: NCI-H2373 (Mesothelioma)
Outline: as §1

[4] = tested on: KP-4 (Pancreatic Carcinoma)
Outline: as §1

[5] = tested on: SK-CO-1 (Colorectal Carcinoma)
Outline: as §1

[6] = tested on: CL-11 (Colorectal Carcinoma)
Outline: as §1

[7] = tested on: CPC-N (Small Cell Lung Carcinoma)
Outline: as §1

[8] = tested on: OVCAR-3 (Ovarian Carcinoma)
Outline: as §1

WM35 (Melanoma) = tested on: WM35 (Melanoma)
Outline: as §1

ES6 (Ewing's Sarcoma) = tested on: ES6 (Ewing's Sarcoma)
Outline: as §1

AM-38 (Glioblastoma) = tested on: AM-38 (Glioblastoma)
Outline: as §1

[9] = tested on: NCI-H1963 (Small Cell Lung Carcinoma)
Outline: as §1

[10] = tested on: C-33-A (Cervical Carcinoma)
Outline: as §1

[11] = tested on: SCC-4 (Oral Cavity Carcinoma)
Outline: as §1

[12] = tested on: MS-1 (Small Cell Lung Carcinoma)
Outline: as §1

NB1 (Neuroblastoma) = tested on: NB1 (Neuroblastoma)
Outline: as §1

[13] = tested on: MDA-MB-415 (Breast Carcinoma)
Outline: as §1

UACC-257 (Melanoma) = tested on: UACC-257 (Melanoma)
Outline: as §1

Row | SMILES | combination Emax [1] | combination Emax [2] | combination Emax [3] | combination Emax (NCI-H2373 (Mesothelioma)) | combination Emax [4] | combination Emax [5] | combination Emax [6] | combination Emax [7] | combination Emax [8] | combination Emax (WM35 (Melanoma)) | combination Emax (ES6 (Ewing's Sarcoma)) | combination Emax (AM-38 (Glioblastoma)) | combination Emax [9] | combination Emax [10] | combination Emax [11] | combination Emax [12] | combination Emax (NB1 (Neuroblastoma)) | combination Emax [13] | combination Emax (UACC-257 (Melanoma))
1 | NC1(C(=O)N[C@@H](CCO)c2ccc(Cl)cc2)CCN(c2ncnc3[nH]ccc23)CC1 [Capivasertib] + C[C@@H]1COCCN1C2=NC(=NC(=C2)C3(CC3)[S@](=N)(=O)C)C4=C5C=CNC5=NC=C4 [AZD6738] (first compound max 10 µM, 7x7, partner max 10 µM) | 0.429 | 0.647 | 0.635 | 0.707 | 0.597 | 0.668 | 0.718 | 0.894 | 0.461 | 0.311 | 0.667 | 0.7 | 0.885 | 0.946 | 0.558 | 0.747 | 0.853 | 0.846 | 0.389
2 | CC(=O)c1c(C)c2cnc(Nc3ccc(N4CCNCC4)cn3)nc2n(C2CCCC2)c1=O [Palbociclib] + CC1(C)CCC(CN2CCN(c3ccc(C(=O)NS(=O)(=O)c4ccc(NCC5CCOCC5)c([N+](=O)[O-])c4)c(Oc4cnc5[nH]ccc5c4)c3)CC2)=C(c2ccc(Cl)cc2)C1 [Venetoclax] (first compound max 10 µM, 7x7, partner max 1 µM) | 0.0941 | 0.152 | 0.215 | 0.223 | 0.383 | 0.43 | 0.298 | 0.106 | 0.0774 | 0.135 | 0.232 | 0.328 | 0.922 | 0.354 | 0.0364 | 0.303 | 0.345 | 0.155 | 0.057
3 | COc1nnc2ccc(N3CCC(c4ccc(OCCN5CCN(C)C(=O)[C@H]5C)cc4)CC3)nn12 [AZD5153] + C[C@@H]1COCCN1C2=NC(=NC(=C2)C3(CC3)[S@](=N)(=O)C)C4=C5C=CNC5=NC=C4 [AZD6738] (first compound max 1 µM, 7x7, partner max 10 µM) | 0.602 | 0.658 | 0.527 | 0.565 | 0.77 | 0.714 | 0.833 | 0.967 | 0.821 | 0.731 | 0.585 | 0.823 | 0.91 | 0.958 | 0.732 | 1 | 0.744 | 0.597 | 0.394
4 | COc1nnc2ccc(N3CCC(c4ccc(OCCN5CCN(C)C(=O)[C@H]5C)cc4)CC3)nn12 [AZD5153] + CN(CC[C@H](CSC1=CC=CC=C1)NC2=C(C=C(C=C2)S(=O)(=O)NC(=O)C3=CC=C(C=C3)N4CCC(CC4)[C@H](C5=CC=CC=C5C6=CC=C(C=C6)Cl)O)S(=O)(=O)C(F)(F)F)CCO [AZD4320] (first compound max 1 µM, 7x7, partner max 1 µM) | – | 0.55 | – | 0.511 | – | – | 0.782 | – | 0.601 | 0.718 | – | 0.949 | 1 | – | – | – | 0.248 | – | 0.413
5 | Cn1cnc2c(F)c(Nc3ccc(Br)cc3Cl)c(C(=O)NOCCO)cc21 [Selumetinib] + C=CCn1c(=O)c2cnc(Nc3ccc(N4CCN(C)CC4)cc3)nc2n1-c1cccc(C(C)(C)O)n1 [AZD1775] (first compound max 10 µM, partner max 1 µM) | 0.557 | 0.463 | 0.16 | 0.342 | 0.6 | 0.794 | 0.855 | 0.748 | 0.626 | 0.686 | 0.233 | 0.563 | 0.913 | 0.93 | 0.452 | 0.778 | 0.84 | 0.23 | 0.607
6 | NC1(C(=O)N[C@@H](CCO)c2ccc(Cl)cc2)CCN(c2ncnc3[nH]ccc23)CC1 [Capivasertib] + CC(C)n1c(=O)n(C)c2cnc3cc(F)c(-c4ccc(OCCCN5CCCCC5)nc4)cc3c21 [AZD1390] (first compound max 10 µM, 7x7, partner max 0.3 µM) | 0.181 | 0.303 | 0.387 | 0.545 | 0.355 | 0.281 | 0.223 | 0.399 | 0.227 | 0.259 | 0.349 | 0.17 | 0.434 | 0.675 | 0.227 | 0.307 | 0.626 | 0.846 | 0.26
7 | COc1nnc2ccc(N3CCC(c4ccc(OCCN5CCN(C)C(=O)[C@H]5C)cc4)CC3)nn12 [AZD5153] + CCN(CCO)CCCOc1ccc2c(Nc3cc(CC(=O)Nc4cccc(F)c4)[nH]n3)ncnc2c1 [AZD2811] (first compound max 1 µM, 7x7, partner max 1 µM) | 0.491 | 0.581 | 0.3 | 0.41 | 0.67 | 0.571 | 0.677 | 0.697 | 0.602 | 0.534 | 0.43 | 0.433 | 0.882 | 0.476 | 0.444 | 0.854 | 0.556 | 0.502 | 0.372
8 | NC1(C(=O)N[C@@H](CCO)c2ccc(Cl)cc2)CCN(c2ncnc3[nH]ccc23)CC1 [Capivasertib] + Cn1cnc2c(F)c(Nc3ccc(Br)cc3Cl)c(C(=O)NOCCO)cc21 [Selumetinib] (first compound max 10 µM, 7x7, partner max 10 µM) | 0.426 | 0.388 | 0.369 | 0.664 | 0.483 | 0.886 | 0.8 | 0.332 | 0.317 | 0.782 | 0.434 | 0.675 | 0.492 | 0.803 | 0.778 | 0.267 | 0.776 | 0.85 | 0.731
9 | Cn1cnc2c(F)c(Nc3ccc(Br)cc3Cl)c(C(=O)NOCCO)cc21 [Selumetinib] + C[C@@H]1COCCN1C2=NC(=NC(=C2)C3(CC3)[S@](=N)(=O)C)C4=C5C=CNC5=NC=C4 [AZD6738] (first compound max 10 µM, 7x7, partner max 10 µM) | 0.494 | 0.468 | 0.386 | 0.463 | 0.506 | 0.808 | 0.873 | 0.824 | 0.4 | 0.767 | 0.367 | 0.706 | 0.855 | 0.894 | 0.502 | 0.667 | 0.783 | 0.458 | 0.595
10 | Cc1c2c(nn1C)CSCc1cc(n(C)n1)CSc1cc(c3ccccc3c1)OCCCc1c(C(=O)O)n(C)c3c-2c(Cl)ccc13 [AZD5991] + CN(C)CCCOc1ccc(-c2ccc3ncc4c(c3c2)n(C2CCOCC2)c(=O)n4C)cn1 [AZD0156] (first compound max 1 µM, 7x7, partner max 1 µM) | 0.174 | 0.215 | 0.289 | 0.272 | 0.259 | 0.363 | 0.164 | 0.314 | 0.427 | 0.231 | 0.279 | 0.677 | 0.354 | 0.245 | 0.382 | 0.524 | 0.278 | 0.463 | 0.277
11 | CN(C)CCCOc1ccc(-c2ccc3ncc4c(c3c2)n(C2CCOCC2)c(=O)n4C)cn1 [AZD0156] + O=C(c1cc(Cc2n[nH]c(=O)c3ccccc23)ccc1F)N1CCN(C(=O)C2CC2)CC1 [Olaparib] (first compound max 3 µM, partner max 3 µM) | 0.0983 | 0.239 | 0.468 | 0.359 | 0.287 | 0.608 | 0.358 | 0.396 | 0.227 | 0.201 | 0.315 | 0.45 | – | 0.419 | 0.164 | 0.438 | 0.357 | 0.325 | 0.21
12 | CC(=O)c1c(C)c2cnc(Nc3ccc(N4CCNCC4)cn3)nc2n(C2CCCC2)c1=O [Palbociclib] + CN(CC[C@H](CSC1=CC=CC=C1)NC2=C(C=C(C=C2)S(=O)(=O)NC(=O)C3=CC=C(C=C3)N4CCC(CC4)[C@H](C5=CC=CC=C5C6=CC=C(C=C6)Cl)O)S(=O)(=O)C(F)(F)F)CCO [AZD4320] (first compound max 10 µM, 7x7, partner max 1 µM) | – | 0.599 | – | 0.223 | – | – | 0.759 | – | 0.204 | 0.229 | – | 0.872 | 1 | – | – | – | 0.597 | – | 0.183
13 | C[C@@H](c1ccc2nccn2c1)n1nnc2ncc(-c3cnn(C)c3)nc21 [Savolitinib] + CN(CC[C@H](CSC1=CC=CC=C1)NC2=C(C=C(C=C2)S(=O)(=O)NC(=O)C3=CC=C(C=C3)N4CCC(CC4)[C@H](C5=CC=CC=C5C6=CC=C(C=C6)Cl)O)S(=O)(=O)C(F)(F)F)CCO [AZD4320] (first compound max 1 µM, 7x7, partner max 1 µM) | – | 0.212 | – | 0.0896 | – | – | 0.173 | – | 0.131 | 0.251 | – | 0.613 | 1 | – | – | – | 0.159 | – | 0.411
14 | C=CCn1c(=O)c2cnc(Nc3ccc(N4CCN(C)CC4)cc3)nc2n1-c1cccc(C(C)(C)O)n1 [AZD1775] + C1CN(CCC1(C(=O)N[C@@H](CCO)C2=CC=C(C=C2)Cl)N)C3=NC=NC4=C3C=CN4 [Capivasertib] (first compound max 3 µM, partner max 3 µM) | 0.681 | 0.702 | 0.619 | 0.54 | 0.787 | 0.691 | 0.734 | 0.948 | 0.695 | 0.681 | 0.472 | 0.702 | – | 0.996 | 0.505 | 0.911 | 0.69 | 0.764 | 0.455
